{
  "source": "paper PMC8619641",
  "about": "“The Antileukemic Effect of Xestoquinone, A Marine-Derived Polycyclic Quinone-Type Metabolite, Is Mediated through ROS-Induced Inhibition of HSP-90” (Molecules, 2021)",
  "target": "T1, topo IIα (Topo II) (Homo sapiens, UniProt P11388)",
  "T1 construct": "gene TOP2A",
  "T1 sequence (P11388 whole entry)": "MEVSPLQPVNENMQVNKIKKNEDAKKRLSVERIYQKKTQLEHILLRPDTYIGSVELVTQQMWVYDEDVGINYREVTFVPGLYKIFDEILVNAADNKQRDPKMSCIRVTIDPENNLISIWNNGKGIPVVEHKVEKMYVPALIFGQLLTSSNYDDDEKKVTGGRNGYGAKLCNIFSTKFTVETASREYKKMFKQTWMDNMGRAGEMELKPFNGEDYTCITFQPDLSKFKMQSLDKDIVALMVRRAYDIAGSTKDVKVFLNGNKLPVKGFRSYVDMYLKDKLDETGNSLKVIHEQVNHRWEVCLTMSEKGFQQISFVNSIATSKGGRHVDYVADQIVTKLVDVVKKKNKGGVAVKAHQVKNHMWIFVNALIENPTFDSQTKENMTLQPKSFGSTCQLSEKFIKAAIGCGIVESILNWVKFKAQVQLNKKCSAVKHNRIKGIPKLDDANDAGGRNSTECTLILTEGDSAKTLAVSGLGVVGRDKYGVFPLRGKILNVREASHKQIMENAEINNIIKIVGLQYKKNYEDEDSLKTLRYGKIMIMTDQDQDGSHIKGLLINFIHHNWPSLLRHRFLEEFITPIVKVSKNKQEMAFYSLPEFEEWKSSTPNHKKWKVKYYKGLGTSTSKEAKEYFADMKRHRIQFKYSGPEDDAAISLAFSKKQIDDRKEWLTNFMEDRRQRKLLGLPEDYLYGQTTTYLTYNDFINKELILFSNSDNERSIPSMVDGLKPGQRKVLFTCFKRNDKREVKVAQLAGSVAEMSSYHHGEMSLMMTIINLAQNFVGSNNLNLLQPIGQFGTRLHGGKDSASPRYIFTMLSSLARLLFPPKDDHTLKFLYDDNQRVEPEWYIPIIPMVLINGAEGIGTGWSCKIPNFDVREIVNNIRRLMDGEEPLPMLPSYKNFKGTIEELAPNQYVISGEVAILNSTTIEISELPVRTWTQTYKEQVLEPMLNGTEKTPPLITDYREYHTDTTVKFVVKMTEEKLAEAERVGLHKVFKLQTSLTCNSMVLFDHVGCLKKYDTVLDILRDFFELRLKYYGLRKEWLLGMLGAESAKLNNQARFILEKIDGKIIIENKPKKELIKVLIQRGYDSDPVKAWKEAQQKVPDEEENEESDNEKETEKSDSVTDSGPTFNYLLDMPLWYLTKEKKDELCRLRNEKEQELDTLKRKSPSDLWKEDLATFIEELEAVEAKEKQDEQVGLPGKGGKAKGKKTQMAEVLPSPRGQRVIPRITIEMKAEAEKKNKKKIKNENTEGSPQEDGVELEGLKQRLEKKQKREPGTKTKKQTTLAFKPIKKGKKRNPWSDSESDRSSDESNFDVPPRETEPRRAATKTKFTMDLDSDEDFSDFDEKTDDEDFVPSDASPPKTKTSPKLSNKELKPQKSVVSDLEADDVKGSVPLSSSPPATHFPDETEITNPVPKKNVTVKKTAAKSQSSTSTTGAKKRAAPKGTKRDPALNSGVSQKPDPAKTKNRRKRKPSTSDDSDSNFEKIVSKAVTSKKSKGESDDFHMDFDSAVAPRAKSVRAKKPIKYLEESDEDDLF",
  "assay": "cell-free supercoiled pHOT1 plasmid DNA relaxation assay",
  "format": "biochemical",
  "data": [
    {"smiles": "C[C@@]12CCCc3coc(c31)C(=O)c1cc3c(cc12)C(=O)C=CC3=O", "note": "[XQ, xestoquinone]", "values": [
      {"measurement": "IC50", "value": 94, "unit": "nM"}
    ]}
  ]
}
